Measurements reported in ChEMBL document CHEMBL1151356, “An investigation of the antitumor activity of Sesbania drummondii” (1981).
Calls of active or inactive are those of the source. The calls are words filed in the database; no cut-off is given here.

Test system: P388
Experiment: In vivo cytotoxicity against mouse P388 cells up to 1.4 mg/kg relative to control
Format: functional, organism-based
Parameters: dose 1.4 mg/kg

O=C1NC(=O)[C@@]2(CC[C@@H](O)C2)c2ccncc21
Activity: inactive
